Reference: patent publication US20250296938A1, “Compounds that Interact with the Ras Superfamily for the Treatment of Cancers, Inflammatory Diseases, Rasopathies, and Fibrotic Disease” (SHY Therapeutics, LLC, priority 2018, published 2025)
Read-outs that look alike come from different tables or passages of the source.

Key:
Assay in all cases: Ras GTP binding domain inhibition assay (Cy3-GTP/Cy5-GTP competition)
KRas G12D mutant = target: T1, KRas G12D mutant (Homo sapiens, UniProt P01116, G12D)
T1 construct: fused on or other part: His tag, used for capture on nickel-coated plates
Description: (§1) The following method was developed as specific assay for the following proteins: KRas wild type, KRas Q61H mutant, KRas G12C mutant, KRas G12D mutant, HRas wild type, Rac-1, and Rho-A.
(§2) • 25 mM Tris-HCl, pH 7.4 • 27 mM KCl • 137 mM NaCl • 1 mM MgCl2 • 1 mM DTT
(§3) • 50 mM Tris-HCl, pH 7.0 • 1 mM MgCl2 • 1 mM DTT
(§4) The small GTPases proteins: KRas wild type. KRas Q61H mutant, KRas G12C mutant, KRas G12D mutants, HRas wild type, Rac-1, and Rho-A were expressed as His-tagged proteins. In addition, the Guanosine nucleotide Exchange Factor (GEF) Sos protein (residues 556-1049) was expressed as a His-tagged protein. In cells, the guanine nucleotide exchange factor Sos protein promotes activation of Ras proteins by stimulating an exchange of GDP for GTP. The inclusion of Sos to the Ras GTP binding domain inhibition assay may be considered as an alternative representation of physiological cellular conditions for evaluating the inhibitory activity of some of the tested small molecules.
(§5) For the assay, all purified small GTPases proteins were diluted in Buffer-I or Buffer-II to a final concentration of 10-30 μg/mL. 200 μL of each diluted protein was added to a nickel-coated 96-well plate and incubated overnight at 4° C. Then the protein solution was discarded and 200 μL of Buffer-I or Buffer-II was added to each well in the presence of 1% DMSO. Compounds to be tested were added to the protein-coated wells at final concentration of 20 μM, and incubated for 3 hours at room temperature with and without […] of Sos added to the final hour of the incubation. When performing IC50 measurements a serial dilution of all tested concentrations was added. Then Cy3-GTP or Cy5-GTP was added to each well to a final concentration of 100 nM. The labeled GTP was incubated for 45 minutes at room temperature. Following GTP incubation, wells were washed 3× in Buffer-I or Buffer-II and 200 μL of Buffer-I or Buffer-II was added to each well. Following washes, the amount of bound labeled-GTP was measured using a SpectraMax M3 (Molecular Devices).

KRas G12C mutant = system: KRas G12C mutant; set-up: species or system human; settings: 20 μM; for KRas G12C mutant + SOS: % inh.: with SOS; for KRas G12C mutant: % inh.: without SOS
Description: as §1, §2, §3, §4, §5

KRas Q61H mutant = system: KRas Q61H mutant; set-up: species or system human; settings: 20 μM
Description: as §1, §2, §3, §4, §5

KRas wild type = system: KRas wild type; set-up: species or system human; settings: 20 μM; for KRas wild type: % inh.: without SOS; for KRas wild type % inh.: without SOS (Table 7A)
Description: as §1, §2, §3, §4, §5

[1] = 20 μM, with SOS, read-out: KRas G-12D mutant + SOS: % inh.
[2] = 20 μM, without SOS, read-out: KRas G12D mutant: % inh.
[3] = at 20 μM, with SOS, read-out: KRas G12D mutant + SOS: % inh.
[4] = at 20 μM, without SOS, read-out: KRas G12D mutant: % inh.
[5] = 20 μM, with SOS (Table 7A), read-out: KRas G12D mutant + SOS: % inh.
[6] = 20 μM, without SOS (Table 7A), read-out: KRas G12D mutant: % inh.

inhibition at 20 µM (KRas G12D mutant; [1])	inhibition at 20 µM (KRas G12D mutant; [2])	KRas G12C mutant + SOS: % inh. (KRas G12C mutant)	KRas G12C mutant: % inh. (KRas G12C mutant)	KRas Q61H mutant + SOS: % inh. (KRas Q61H mutant; with SOS)	KRas Q61H mutant: % inh. (KRas Q61H mutant; without SOS)	KRas wild type + SOS: % inh. (KRas wild type; with SOS)	KRas wild type: % inh. (KRas wild type)	inhibition at 20 µM (KRas G12D mutant; [5])	inhibition at 20 µM (KRas G12D mutant; [6])	KRas Q61H mutant + SOS: % inh. (KRas Q61H mutant; with SOS (Table 7A))	KRas Q61H mutant: % inh. (KRas Q61H mutant; without SOS (Table 7A))	KRas wild type + SOS: % inh. (KRas wild type; with SOS (Table 7A))	KRas wild type % inh. (KRas wild type)	Structure (SMILES)	further results
51 to 75%	26 to 50%	D (76-100% inhibition)	B (26-50% inhibition)	D (76-100% inhibition)	C (51-75% inhibition)	D (76-100% inhibition)	B (26-50% inhibition)							COc1nscc1-c1sc2nc(-c3nccn3C)nc(N3CCC(OC)C3)c2c1-c1ccccc1.Cl (centres unmarked)	
51 to 75%	51 to 75%	D (76-100% inhibition)	D (76-100% inhibition)	C (51-75% inhibition)	B (26-50% inhibition)	C (51-75% inhibition)	D (76-100% inhibition)							COCCn1cc(-c2sc3nc(-c4nccn4C)nc(N4CCC(OC)C4)c3c2-c2ccccc2)cn1.Cl (centres unmarked)	
51 to 75%	51 to 75%	C (51-75% inhibition)	C (51-75% inhibition)	C (51-75% inhibition)	B (26-50% inhibition)	C (51-75% inhibition)	C (51-75% inhibition)							COC1CCN(c2nc(-c3nccn3C)nc3sc(-c4cnc(C5CC5)o4)c(-c4ccccc4)c23)C1.Cl (centres unmarked)	
51 to 75%	51 to 75%	C (51-75% inhibition)	C (51-75% inhibition)	C (51-75% inhibition)	C (51-75% inhibition)	C (51-75% inhibition)	C (51-75% inhibition)							COc1ncccc1-c1sc2nc(-c3nccn3C)nc(N3CCC(OC)C3)c2c1-c1ccccc1.Cl (centres unmarked)	
51 to 75%	51 to 75%	D (76-100% inhibition)	D (76-100% inhibition)	C (51-75% inhibition)	B (26-50% inhibition)	C (51-75% inhibition)	C (51-75% inhibition)							COC1CCN(c2nc(-c3nccn3C)nc3sc(-c4cccnc4)c(-c4ccccc4)c23)C1.Cl (centres unmarked)	
														COC1CCN(C(=O)c2sc3nc(-c4nccn4C)nc(N[C@H]4C[C@@H](OC)C4)c3c2C2=CC=CCC=C2)C1 (some centres unmarked)	IC50 (KRas G12D mutant; cell-free, 100 nM Cy3-GTP or Cy5-GTP): 5 to 10 µM
														COc1cccc(-c2sc3nc(-c4nccn4C)nc(N[C@@H]4CC[C@H](C=O)C4)c3c2-c2ccccc2)c1F (racemic)	inhibition at 20 µM (KRas G12D mutant; [3]): 51 to 75%; inhibition at 20 µM (KRas G12D mutant; [4]): 51 to 75%
								51 to 75%	51 to 75%	D (76-100% inhibition)	C (51-75% inhibition)	D (76-100% inhibition)	C (51-75% inhibition)	COc1cccc(-c2sc3nc(-c4nccn4C)nc(N[C@@H]4CC[C@H](OC)C4)c3c2-c2ccccc2)c1F [drawing 884]	
								76 to 100%	76 to 100%	D (76-100% inhibition)	D (76-100% inhibition)	D (76-100% inhibition)	D (76-100% inhibition)	COc1c(F)cccc1-c1sc2nc(-c3nccn3C)nc(N[C@@H]3CC[C@H](OC)C3)c2c1-c1ccccc1 [drawing 887]	
								51 to 75%	51 to 75%	D (76-100% inhibition)	C (51-75% inhibition)	D (76-100% inhibition)	C (51-75% inhibition)	CO[C@H]1CC[C@@H](Nc2nc(-c3nccn3C)nc3sc(-c4cccc5[nH]ncc45)c(-c4ccccc4)c23)C1 [drawing 889]	
								51 to 75%	51 to 75%	D (76-100% inhibition)	C (51-75% inhibition)	D (76-100% inhibition)	C (51-75% inhibition)	COc1cccc(-c2sc3nc(-c4nccn4C)nc(N[C@@H]4CC[C@H](OC)C4)c3c2C)c1F [drawing 894]	
								26 to 50%	1 to 25%	B (26-50% inhibition)	A (1-25% inhibition)	B (26-50% inhibition)	A (1-25% inhibition)	COc1cccc(-c2sc3nc(-c4nc(C)cn4C)nc(N[C@@H]4CC[C@H](OC)C4)c3c2C)c1F [drawing 896]	
								26 to 50%	26 to 50%	B (26-50% inhibition)	B (26-50% inhibition)	B (26-50% inhibition)	B (26-50% inhibition)	CO[C@H]1CC[C@@H](Nc2nc(-c3nc(C)cn3C)nc3sc(-c4cccc5[nH]ncc45)c(C)c23)C1 [drawing 897]	
														COc1c(F)cccc1-c1sc2nc(-c3nccn3C)nc(N[C@@H]3CC[C@H](OC)C3)c2c1-c1ccccc1 [drawing 1022]	inhibition at 20 µM (KRas G12D mutant; [3]): 76 to 100%; inhibition at 20 µM (KRas G12D mutant; [4]): 76 to 100%
														CO[C@H]1CC[C@@H](Nc2nc(-c3nccn3C)nc3sc(-c4cccc5[nH]ncc45)c(-c4ccccc4)c23)C1 [drawing 1024]	inhibition at 20 µM (KRas G12D mutant; [3]): 51 to 75%; inhibition at 20 µM (KRas G12D mutant; [4]): 51 to 75%
